Data taken from patent US20200255828A1, “METHODS AND COMPOSITIONS FOR ALTERING FUNCTION AND STRUCTURE OF CHROMATIN LOOPS AND/OR DOMAINS” (THE BROAD INSTITUTE, INC., priority 2017, published 2020).

Experiments:
[1] = test system: HCT-116-CMV-OsTIR1 cells; assay: PRO-Seq control for the auxin hormone itself; assay type: cell-based, human; details: no mAID tag on any protein
Method: To measure changes in transcription resulting from cohesin loss, Applicants performed precision run-on sequencing (PRO-Seq) (Jonkers and Lis, 2015), a variant of global run-on sequencing (GRO-Seq), using a single biotinylated nucleotide (biotin-11-CTP) as previously described (Engreitz et al., 2016). Applicants made one modifications to the protocol: at the end of each biotin enrichment, Applicants eluted biotinylated RNAs from the streptavidin-coated magnetic beads by heating beads in 25 μl of 20 mM Tris-HCl pH 7.5, 10 mM EDTA, 2% N-lauroylsarcosine at 95° C. for 5 minutes, followed by a magnetic-bead nucleic acid purification with 20 μl of MyONE SILANE beads. During the nuclei preparation step, Applicants processed pairs of RAD21-mAC cells with and without auxin treatment in parallel. In addition, Applicants performed PRO-Seq on HCT-116 CMV-OsTIR1 cells, the parental cell line of RAD21-mAC containing the OsTIR1 gene integrated at the AAVS1 locus and no mAID tags integrated on any protein. By performing PRO-Seq on CMV-OsTIR1 cells with and without auxin treatment, Applicants could control for transcriptional effects of the auxin treatment itself on HCT-116 cells, as well as any consequences of tagging the RAD21 protein. […]

[2] = test system: HCT-116 RAD21-mAC cells; assay: PRO-Seq nascent transcription after cohesin loss; assay type: cell-based, human
From the text: Finally, Applicants sought to investigate the role of cohesin in regulating gene expression. Cohesin has been proposed to facilitate interactions between enhancers and promoters (Kagey et al., 2010; Merkenschlager and Nora, 2016). Loop domains are thought to regulate this process by preventing enhancers from forming ectopic interactions with targets that lie in a different loop domain (Lupiáñez et al., 2015; Flavahan et al., 2016). Applicants therefore characterized the effects of cohesin loss on nascent transcription by performing precision nuclear run-on sequencing (PRO-Seq) in treated and untreated HCT116 cells (Engreitz et al., 2016; Jonkers and Lis, 2015) (FIG. 7A). Applicants chose an early timepoint—6 hours after auxin treatment—with the aim of examining direct consequences, rather than indirect effects due to changes in cell state.
To measure changes in transcription resulting from cohesin loss, Applicants performed precision run-on sequencing (PRO-Seq) (Jonkers and Lis, 2015), a variant of global run-on sequencing (GRO-Seq), using a single biotinylated nucleotide (biotin-11-CTP) as previously described (Engreitz et al., 2016). Applicants made one modifications to the protocol: at the end of each biotin enrichment, Applicants eluted biotinylated RNAs from the streptavidin-coated magnetic beads by heating beads in 25 μl of 20 mM Tris-HCl pH 7.5, 10 mM EDTA, 2% N-lauroylsarcosine at 95° C. for 5 minutes, followed by a magnetic-bead nucleic acid purification with 20 μl of MyONE SILANE beads. During the nuclei preparation step, Applicants processed pairs of RAD21-mAC cells with and without auxin treatment in parallel. In addition, Applicants performed PRO-Seq on HCT-116 CMV-OsTIR1 cells, the parental cell line of RAD21-mAC containing the OsTIR1 gene integrated at the AAVS1 locus and no mAID tags integrated on any protein. By performing PRO-Seq on CMV-OsTIR1 cells with and without auxin treatment, Applicants could control for transcriptional effects of the auxin treatment itself on HCT-116 cells, as well as any consequences of tagging the RAD21 protein.
For analysis of PRO-Seq data, Applicants aligned 30-bp paired-end reads to the hg19 reference (bowtie2 v2.1.0, (Langmead and Salzberg, 2012)), removed duplicate reads (Picard picard.sourceforge.net), and discarded reads with MAPQ <30. Applicants counted reads overlapping RefSeq genes (collapsed by gene symbol to the longest isoform)—this quantification procedure includes signal both at the paused position (near the TSS) as well as in the gene body. Applicants identified genes showing significant differences in transcription with DESeq2 (Love et al., 2014), excluding genes with zero coverage in all samples and calling significance at Benjamini-Hochberg corrected p-value <0.05.
To determine whether there were global changes in the total amount of transcription (up or down) that would affect the normalization and analysis of these experiments, Applicants included a spike-in control in three of the four PRO-Seq replicates for each of untreated and treated RAD21-mAC and CMV-OsTIR1 cells. Specifically, Applicants added ˜500,000 Drosophila S2 cells at the beginning of the protocol. Upon sequencing of these libraries, Applicants counted the number of spike-in reads by aligning to the Drosophila genome (dme13) with bowtie2 v2.1.0.
Assessment of changes in transcription after cohesin loss. […]

Question: With `O=C(O)Cc1c[nH]c2ccccc12` [auxin, indole-3-acetic acid] as the compound, how does the “number of genes detected as significantly different before vs after auxin treatment” value [1] read?
Answer: 105

Question: What about the “number of genes significantly different with at least a 1.3-fold change” value [1] of the same compound?
Answer: 56

Question: What about the AKAP12 expression down-regulation ([2]; upon auxin treatment) of the same compound?
Answer: 3.3 fold

Question: What about the IER5L expression down-regulation ([2]; upon auxin treatment) of the same compound?
Answer: 2.6 fold

Question: What about the KITLG expression down-regulation ([2]; upon auxin treatment) of the same compound?
Answer: 2.73 fold

Question: And the “number of genes 2-fold downregulated with p<0.05 after auxin treatment” value ([2]; vs untreated HCT-116-CMV-OsTIR1 control)?
Answer: 43

Question: And the “number of genes 1.75-fold downregulated with p<0.05 after auxin treatment” value ([2]; vs untreated RAD21-mAC cells)?
Answer: 49
